The source of these data is patent publication US7879868B2 (Novartis AG, priority 2002, dated 2011).

Structures are written as SMILES. Like-named read-outs stand apart in the source and are kept apart here.

Data set [1] can be described thus: Effect of imatinib on irinotecan pharmacokinetics in mice. The conditions noted are these: for bioavailability: mouse, plasma, oral; for SN-38 plasma exposure: irinotecan 10 mg/kg oral. From the text:
Ci: rate of clearance; Ka: absorption rate; F: calculated bioavailability (relative to intravenous dosing).

The target of a further data set is T1, BCRP (Homo sapiens, UniProt Q9UNQ0).
T1 sequence (Q9UNQ0 1-655): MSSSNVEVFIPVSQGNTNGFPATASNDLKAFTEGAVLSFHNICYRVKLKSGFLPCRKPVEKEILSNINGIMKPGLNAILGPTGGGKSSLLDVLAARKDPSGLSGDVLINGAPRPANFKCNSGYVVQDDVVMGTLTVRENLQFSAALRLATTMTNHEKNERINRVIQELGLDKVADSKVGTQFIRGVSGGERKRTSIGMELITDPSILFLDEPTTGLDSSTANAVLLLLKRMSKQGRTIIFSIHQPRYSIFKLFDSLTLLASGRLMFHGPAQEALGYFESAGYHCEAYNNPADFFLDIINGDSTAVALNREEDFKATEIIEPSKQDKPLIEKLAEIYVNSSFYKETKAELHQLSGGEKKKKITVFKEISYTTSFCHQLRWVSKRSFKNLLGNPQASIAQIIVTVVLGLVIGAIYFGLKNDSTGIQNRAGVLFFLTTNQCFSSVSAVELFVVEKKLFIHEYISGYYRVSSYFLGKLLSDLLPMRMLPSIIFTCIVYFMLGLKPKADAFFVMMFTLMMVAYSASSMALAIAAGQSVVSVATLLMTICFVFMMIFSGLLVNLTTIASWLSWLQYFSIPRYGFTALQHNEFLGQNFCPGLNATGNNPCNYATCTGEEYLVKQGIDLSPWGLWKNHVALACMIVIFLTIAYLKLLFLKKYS

The next data set has as its system Saos2pcDNA#3#2 cells. In words: Growth inhibition in vector control Saos2 cells. Format: cell-based, human.
A further data set relates to Saos2BCRP#4 cells. In words: cells.
The test system of a further data set is Saos2BCRPMUT#10 cells. The data set can be described thus: cells.
Setting [2] is: Homo sapiens, SAOS-2, read-out: concentration of topotecan causing 50% growth inhibition, in presence of 1 μM imatinib.
[3] abbreviates: Homo sapiens, SAOS-2, read-out: concentration of topotecan causing 50% growth inhibition, in presence of 3 μM imatinib.
Where [4] appears, read: Homo sapiens, SAOS-2, read-out: concentration of topotecan causing 50% growth inhibition, in presence of 5 μM imatinib.
[5] abbreviates: Homo sapiens, SAOS-2, read-out: concentration of topotecan causing 50% growth inhibition, topotecan alone.
Where [6] appears, read: read-out: concentration of SN-38 causing 50% growth inhibition (IC50), imatinib 0 μM.
[7] abbreviates: read-out: concentration of SN-38 causing 50% growth inhibition (IC50), imatinib 0.1 μM.
Setting [8] is: read-out: concentration of SN-38 causing 50% growth inhibition (IC50), imatinib 0.3 μM.
Where [9] appears, read: read-out: concentration of SN-38 causing 50% growth inhibition (IC50), imatinib 1.0 μM.
Setting [10] is: read-out: concentration of SN-38 causing 50% growth inhibition (IC50), imatinib 3.0 μM.

As for `Cc1ccc(NC(=O)c2ccc(CN3CCN(C)CC3)cc2)cc1Nc1nccc(-c2cccnc2)n1` [imatinib], the “effect of imatinib on oral bioavailability of irinotecan” value in data set [1] (mice, imatinib 50 mg/kg oral + irinotecan 10 mg/kg oral) is on record as “enhances oral bioavailability of irinotecan”. In addition, the “reversal of BCRP-mediated resistance to topotecan (summary of Table 1)” value at BCRP is recorded as “complete reversal of BCRP-mediated resistance to topotecan”.
As to `CC[C@@]1(O)C(=O)OCc2c1cc1n(c2=O)Cc2cc3c(CN(C)C)c(O)ccc3nc2-1` [topotecan], the IC50 amounted to 16 nM with Saos2pcDNA#3#2 cells (Homo sapiens, SAOS-2, Saos2pcDNA cells, read-out: IC50 concentration of topotecan); 23 nM in the data set on Saos2pcDNA#3#2 cells (Homo sapiens, SAOS-2, in presence of 1 μM imatinib, read-out: concentration of topotecan causing 50% growth inhibition); 20 nM with Saos2pcDNA#3#2 cells (Homo sapiens, SAOS-2, in presence of 3 μM imatinib, read-out: concentration of topotecan causing 50% growth inhibition); 23 nM in the data set with Saos2pcDNA#3#2 cells (Homo sapiens, SAOS-2, in presence of 5 μM imatinib, read-out: concentration of topotecan causing 50% growth inhibition); 20 nM in the data set on Saos2pcDNA#3#2 cells (Homo sapiens, SAOS-2, topotecan alone, read-out: concentration of topotecan causing 50% growth inhibition); 167 nM with Saos2BCRP#4 cells (Homo sapiens, SAOS-2, read-out: IC50 concentration of topotecan, Saos2BCRP#4 cells). In addition, the IC50 in the data set with Saos2BCRP#4 cells (setting [2]) was found to be 35 nM; with Saos2BCRP#4 cells (setting [3]), 24 nM; in the data set on Saos2BCRP#4 cells (setting [4]), 22 nM; in the data set with Saos2BCRP#4 cells (setting [5]), 254 nM; in the data set with Saos2BCRPMUT#10 cells (Homo sapiens, SAOS-2, read-out: IC50 concentration of topotecan, Saos2Mut#10 cells), 9 nM; in the data set on Saos2BCRPMUT#10 cells (setting [2]) it was 18 nM. The IC50 in the data set on Saos2BCRPMUT#10 cells (setting [3]) was found to be 9.9 nM; in the data set with Saos2BCRPMUT#10 cells (setting [4]) it was 15 nM; with Saos2BCRPMUT#10 cells (setting [5]), 9 nM.
Take `CCc1c2c(nc3ccc(OC(=O)N4CCC(N5CCCCC5)CC4)cc13)-c1cc3c(c(=O)n1C2)COC(=O)[C@]3(O)CC` [IRN]: the results for the bioavailability in data set [1] and in data set [1] (10 mg/kg) were 23 ± 2% and 9 ± 2%, respectively.
Take `CCc1c2c(nc3ccc(O)cc13)-c1cc3c(c(=O)n1C2)COC(=O)[C@]3(O)CC` [SN-38, 7-ethyl-10-hydroxycamptothecin]: the SN-38 plasma exposure came to 775 ng/h/mL in data set [1] (mice, with imatinib 50 mg/kg oral) and 263 ng/h/mL in data set [1] (mice, without imatinib). Further, the IC50 was 2.9 nM with Saos2pcDNA#3#2 cells (setting [6]); 2.7 nM in the data set with Saos2pcDNA#3#2 cells (setting [7]); 2.7 nM with Saos2pcDNA#3#2 cells (setting [8]); 3.3 nM with Saos2pcDNA#3#2 cells (setting [9]); 3.7 nM in the data set with Saos2pcDNA#3#2 cells (setting [10]); more than 100 nM in the data set with Saos2BCRP#4 cells (setting [6]). Further, the IC50 in the data set with Saos2BCRP#4 cells (setting [7]) was found to be 82 nM; with Saos2BCRP#4 cells (setting [8]), 29 nM; in the data set on Saos2BCRP#4 cells (setting [9]), 14 nM; in the data set with Saos2BCRP#4 cells (setting [10]) it was 7 nM; in the data set with Saos2BCRPMUT#10 cells (setting [6]) it was 1.7 nM; with Saos2BCRPMUT#10 cells (setting [7]), 1.7 nM. Moreover, the IC50 was 1.6 nM with Saos2BCRPMUT#10 cells (setting [8]), 1.7 nM in the data set with Saos2BCRPMUT#10 cells (setting [9]) and 1.6 nM in the data set with Saos2BCRPMUT#10 cells (setting [10]).
